In patent US11617748B2, “Meclozine derivatives and diclazuril derivatives for use in the prevention and/or the treatment of disorders associated to the inflammation induced by P. acnes” (priority 2016, dated 2023):

Key:
Format in all cases: cell-based, human
[1] = test system: IκB; assay: Western blot of IκB / p-IκB in P. acnes-stimulated HaCaT cells; settings: 24 h pre-treatment; for degradation of p-IκB: 25 μM, P. acnes 30 min-24 h
Procedure: Western Blot analysis. Whole cell protein extracts (25 μg) were separated by electrophoresis (LDS-PAGE) under denaturing conditions with NuPAGE Novex 4-12% Bis-Tris gel (1 mm, 12 wells, Invitrogen, UK) and proteins were transferred onto nitrocellulose membranes and saturated in 20 ml of saturation buffer consisting of TBS 1× (Tris Buffered Saline) containing 200 mM Tris, 1.4 M NaCl (pH 7.6), 5% no fat milk, 0.1% Tween 20 for 1 h. After washing three times for 15 min with 15 ml of TBS/T buffer [1×TBS, 0.1% Tween-20], membranes were incubated overnight with gentle mixing at 4° C. with 10 ml of rabbit polyclonal primary antibodies against human ICAM-1 (SC-7891, 1:500), PPARα (SC-398394, 1:250), PPARβ (SC-74517, 1:200), PPARγ (SC-7196, 1:500), IκB (SC-371, 1:500), p-IκB (SC-7977, 1:500), Cox-2 (SC-7951, 1:250), p-mTOR (CS, Ref 2974, 1:1000), mTOR (CS, Ref 2972, 1:1000), p-p38 (SC-17852, 1:500), p38 (SC-535, 1:250), ERK (SC-94, 1:500), JNK (SC-571, 1:500), and mouse monoclonal primary antibodies against human p-PI3 kinase (CS, Ref 4228, 1:250), PI3 kinase (CS, Ref 4257, 1:250), p-Akt1/2/3 (SC-81433, 1:500), p-ERK (SC-7383, 1:500), p-JNK (SC-6254, 1:500), -actin used to control loading, (SC-47778, 1:1000) diluted in TBS/T supplemented with 5% BSA (antibodies were purchased from Santa Cruz Biotechnology, Inc., Santa Cruz, Calif., USA abbreviated SC; and from Cell Signaling Technology, Inc. Leiden, The Netherlands abbreviated CS above). After washing to remove unbound antibodies, bound primary antibodies were detected by incubation for 1 h using secondary antibody against rabbit- and mouse IgG (Santa Cruz Biotechnology, SC-2357, 1:5000 and SC-2005, 1:5000, respectively). Unbound material was removed by washing and peroxidase activity was detected in a chemiluminescence assay (WesternBright ECL, Advansta, Menlo Park, USA).
The molecular basis for the inhibition of IL-8 production by diclazuril and meclozine has been investigated, in particular it has been evaluated if they interfered with signaling pathways known to be activated when keratinocytes are stimulated with P. acnes. […]

[2] = test system: PI3K; assay: Western blot of p-PI3K/PI3K in P. acnes-stimulated HaCaT cells; settings: 25 μM, 24 h pre-treatment
Procedure: (§1) Western Blot analysis. Whole cell protein extracts (25 μg) were separated by electrophoresis (LDS-PAGE) under denaturing conditions with NuPAGE Novex 4-12% Bis-Tris gel (1 mm, 12 wells, Invitrogen, UK) and proteins were transferred onto nitrocellulose membranes and saturated in 20 ml of saturation buffer consisting of TBS 1× (Tris Buffered Saline) containing 200 mM Tris, 1.4 M NaCl (pH 7.6), 5% no fat milk, 0.1% Tween 20 for 1 h. […] After washing to remove unbound antibodies, bound primary antibodies were detected by incubation for 1 h using secondary antibody against rabbit- and mouse IgG (Santa Cruz Biotechnology, SC-2357, 1:5000 and SC-2005, 1:5000, respectively). Unbound material was removed by washing and peroxidase activity was detected in a chemiluminescence assay (WesternBright ECL, Advansta, Menlo Park, USA). […]

[3] = test system: PPARγ; assay: Western blot of PPARγ expression in P. acnes-stimulated HaCaT cells; settings: 25 μM, 24 h pre-treatment
Procedure: as §1

| SMILES | degradation of p-IκB [1] | phosphorylation of PI3K induced by P. acnes [2] | degradation of IκB ([1]; 10 μM, P. acnes 15-180 min) | expression of PPARγ [3] |
| --- | --- | --- | --- | --- |
| Cc1cccc(CN2CCN(C(c3ccccc3)c3ccc(Cl)cc3)CC2)c1 (stereo not drawn) [meclozine, Meclozine] | did not alter the degradation of p-IκB | prevented the phosphorylation |  |  |
| N#CC(c1ccc(Cl)cc1)c1c(Cl)cc(-n2ncc(=O)[nH]c2=O)cc1Cl (stereo not drawn) [diclazuril, Diclazuril] | did not alter the degradation of p-IκB | prevented the phosphorylation | did not prevented the degradation of IκB | no change |
